Source: patent US20200352914A1, “METHODS OF TREATING HYPERTENSION WITH ACTIVATORS OF TIE-2” (Aerpio Pharmaceuticals, Inc., priority 2019, published 2020)

What was measured:
human endothelial cells = assay: NO assay (nitrite in supernatant) in human endothelial cells; type: cell-based; settings: 0.3-30 μmol/L, 30 minutes
Description: Confluent human endothelial cell monolayers were cultured overnight in MCDB131 containing 0.1% BSA and sepiapterin (10 μmol/L). The monolayers were then incubated with increasing concentrations of Compound 2 (0.3-30 μmol/L) or solvent (DMSO) for 30 minutes. In separate experiments, cells treated with a control siRNA or siRNA directed against ABL1 were cultured in MCDB131 containing 0.1% BSA and sepiapterin (10 μmol/L), and then treated with Compound 2 (30 μmol/L) or solvent (DMSO) for 30 minutes before the addition of Yoda1 (1 μmol/L) for an additional 30 minutes. HEK293 cells co-transfected with wild-type eNOS and wild-type ABL1, DN ABL1, or GFP (as a control) were cultured overnight in minimal essential medium containing 0.5% heat-inactivated FCS and sepiapterin (10 μmol/L). Aliquots of the culture media were collected before and after each treatment. Potential cell debris was removed by centrifugation of the media at 1000 rpm for 5 minutes. NO release was assessed by determining the amount of nitrite in the cell supernatants using a Nitric Oxide Analyzer after reaction with iodide and acetic acid under nitrogen at room temperature.
To investigate the role of VE-PTP on the regulation of eNOS, human endothelial cells were treated with increasing concentrations of Compound 2 (for 30 minutes) and the generation of NO was assessed using a NO analyzer.

[1] = test system: endothelium-intact aortic rings; assay: Vascular reactivity of aortic rings from C57/BL6 mice (myograph, TABLE 28); design: species or system mouse
Description: Aortic rings from eight to ten-week old male C57/BL6 mice were used to investigate the effects of Compound 2 on endothelial function. Twelve to fourteen-week old male Ins2^Akita mice and non-diabetic littermate controls were used to study the effects of Compound 2 on diabetes-associated endothelial dysfunction. Myograph experiments were performed in modified Krebs-Henseleit solution. Aortae were dissected free of adhering tissue, cut into 2-mm segments, and mounted in 5-mL myograph chambers under a basal tension of 1 g. Relaxation to cumulatively increasing concentrations (0.001-100 μmol/L) of Compound 2 or solvent (DMSO) was assessed in endothelium-intact aortic segments pre-contracted with phenylephrine (1 μmol/L) in the absence or presence of N^ω-nitro-L-arginine methyl ester (L-NAME; 300 μmol/L).
To assess the role for VE-PTP in the regulation of vascular reactivity, endothelium-intact rings of murine aortae were incubated with increasing concentrations of Compound 2.
FIG. 24 panels A-D illustrate the effect of Compound 2 on endothelial function. FIG. 24 panel A illustrates concentration dependent effect of Compound 2 on the tone of endothelium-intact aortic rings. Experiments were performed in the absence and presence of an eNOS inhibitor, L-NAME (300 μmol/L). FIG. 24 panels B-D illustrate the effect of solvent (Sol, DMSO) and Compound 2 (1, 3, or 10 μmol/L) on the contractile response to phenylephrine (PE; FIG. 24 panel B), and relaxation induced by either sodium nitroprusside (SNP; FIG. 24 panel C) or acetylcholine (ACh; FIG. 24 panel D). The dotted line in FIG. 24 panel D represents responses in endothelium-denuded aortic rings; n=5 mice/group.

recombinant human VE-PTP = recombinant human VE-PTP (Homo sapiens, UniProt P23467); assay: Human VE-PTP (HPTPβ) phosphatase assay on eNOS Tyr81; type: biochemical; settings: pre-incubation with 10 μmol/L; cell-free
Chain of recombinant human VE-PTP (P23467 23-1997): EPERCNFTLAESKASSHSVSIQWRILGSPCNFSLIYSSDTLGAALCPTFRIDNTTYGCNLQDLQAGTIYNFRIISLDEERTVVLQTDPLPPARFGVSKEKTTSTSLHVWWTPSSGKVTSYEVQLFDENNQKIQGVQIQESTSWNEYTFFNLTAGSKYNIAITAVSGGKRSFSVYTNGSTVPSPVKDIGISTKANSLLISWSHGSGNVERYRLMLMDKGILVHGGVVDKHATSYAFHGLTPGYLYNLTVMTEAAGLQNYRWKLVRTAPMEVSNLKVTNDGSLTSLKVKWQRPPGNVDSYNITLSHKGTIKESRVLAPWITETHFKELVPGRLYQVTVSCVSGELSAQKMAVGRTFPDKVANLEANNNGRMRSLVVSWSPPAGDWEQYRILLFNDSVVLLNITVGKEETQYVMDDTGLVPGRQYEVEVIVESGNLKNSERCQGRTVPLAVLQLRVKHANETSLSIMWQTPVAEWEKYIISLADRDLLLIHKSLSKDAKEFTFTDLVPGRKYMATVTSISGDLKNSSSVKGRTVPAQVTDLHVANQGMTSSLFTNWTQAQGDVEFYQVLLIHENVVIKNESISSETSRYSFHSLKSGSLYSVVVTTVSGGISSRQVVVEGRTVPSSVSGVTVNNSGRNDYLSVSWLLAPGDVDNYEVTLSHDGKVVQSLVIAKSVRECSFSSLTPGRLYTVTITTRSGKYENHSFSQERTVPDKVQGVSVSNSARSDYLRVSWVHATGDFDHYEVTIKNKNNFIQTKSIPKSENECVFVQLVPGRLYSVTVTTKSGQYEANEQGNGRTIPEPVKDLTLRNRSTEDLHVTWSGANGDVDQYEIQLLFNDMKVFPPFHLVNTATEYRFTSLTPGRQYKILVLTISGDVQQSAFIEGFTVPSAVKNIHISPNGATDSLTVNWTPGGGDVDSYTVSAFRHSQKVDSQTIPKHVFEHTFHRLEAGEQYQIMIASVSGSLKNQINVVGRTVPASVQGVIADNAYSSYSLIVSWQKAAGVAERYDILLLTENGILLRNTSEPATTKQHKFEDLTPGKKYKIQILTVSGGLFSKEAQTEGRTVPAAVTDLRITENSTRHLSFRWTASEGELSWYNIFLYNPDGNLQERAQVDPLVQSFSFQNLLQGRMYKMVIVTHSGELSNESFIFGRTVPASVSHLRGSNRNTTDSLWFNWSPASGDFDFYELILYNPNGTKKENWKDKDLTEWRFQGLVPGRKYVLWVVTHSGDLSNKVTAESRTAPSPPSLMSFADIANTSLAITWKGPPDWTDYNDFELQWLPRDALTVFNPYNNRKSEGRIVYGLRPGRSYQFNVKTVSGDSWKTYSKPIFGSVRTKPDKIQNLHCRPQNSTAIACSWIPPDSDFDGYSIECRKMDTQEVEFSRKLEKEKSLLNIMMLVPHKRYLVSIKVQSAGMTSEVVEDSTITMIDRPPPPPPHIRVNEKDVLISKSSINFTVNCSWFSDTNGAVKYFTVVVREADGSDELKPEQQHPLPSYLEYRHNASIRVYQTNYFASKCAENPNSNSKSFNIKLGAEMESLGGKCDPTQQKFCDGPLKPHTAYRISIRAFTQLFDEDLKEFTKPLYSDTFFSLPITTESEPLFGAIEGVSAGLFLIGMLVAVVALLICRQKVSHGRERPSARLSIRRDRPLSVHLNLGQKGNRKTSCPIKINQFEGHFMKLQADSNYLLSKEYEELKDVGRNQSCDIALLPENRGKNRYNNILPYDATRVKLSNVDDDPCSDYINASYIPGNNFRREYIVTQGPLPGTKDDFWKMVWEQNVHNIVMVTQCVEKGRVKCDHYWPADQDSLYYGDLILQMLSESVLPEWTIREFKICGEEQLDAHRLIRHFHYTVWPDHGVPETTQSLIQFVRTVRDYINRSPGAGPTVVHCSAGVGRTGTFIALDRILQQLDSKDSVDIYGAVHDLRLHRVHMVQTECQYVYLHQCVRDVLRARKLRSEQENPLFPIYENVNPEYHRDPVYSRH
Description: Confluent monolayers of human endothelial cells expressing FLAG-tagged eNOS were cultured overnight in MCDB131 containing 0.1% BSA and then stimulated with Yoda1 (1 μmol/L) for 30 minutes to elicit phosphorylation of eNOS on Tyr81. eNOS-FLAG immunoprecipitates were used as substrates to test the ability of recombinant human VE-PTP to dephosphorylate eNOS Tyr81 in a cell-free in vitro reaction. Briefly after washing the FLAG-eNOS, immunoprecipitates were suspended in phosphatase assay buffer containing Tris/HCl pH 7.5 (50 mmol/L), NaCl (150 mmol/L), EDTA (1 mmol/L), and EDTA-free protease inhibitors mix at room temperature. An aliquot of the eNOS-FLAG immunoprecipitate was immediately processed for immunoblotting (input) and the remainder was divided into 6 identical aliquots and incubated for up to 10 minutes at room temperature in phosphatase assay buffer containing DTT (3 mmol/L) and recombinant human VE-PTP (100 U/50 μl reaction). Experiments were performed in the presence of solvent (1% DMSO) or Compound 2 (10 μmol/L) and reactions were stopped by boiling samples for 10 minutes in SDS sample buffer. eNOS phosphorylation was then analyzed by SDS-PAGE and immunoblotting.

eNOS = eNOS and Akt phosphorylation in human endothelial cells (immunoprecipitation, immunoblotting); type: cell-based
Description: Confluent monolayers of human endothelial cells expressing FLAG-tagged eNOS cultured overnight in MCDB131 containing 0.1% BSA and then incubated with increasing concentrations of Compound 2 (0.3-30 μmol/L) or solvent (DMSO) for 30 minutes. In separate experiments, human endothelial cells were cultured overnight in MCDB131 containing 0.1% BSA and then incubated treated with Compound 2 (30 μmol/L) or solvent for 30 minutes and then stimulated with Yoda1 (1 μmol/L) or solvent for an additional 30 minutes. To inhibit Src, cells were pre-incubated with PP2 (1 μmol/L) for 30 min before incubation with Compound 2 and stimulation with Yoda1. After two washes with cold PBS, cells were collected with the aid of cell scrapers in a lysis buffer containing Tris/HCl pH 7.5 (50 mmol/L), NaCl (150 mmol/L), Triton X-100 (1%), NaPPi (10 mmol/L), NaF (20 mmol/L), orthovanadate (2 mmol/L), okadaic acid (10 nmol/L), β-glycerophosphate (50 mmol/L), phenylmethylsulfonyl fluoride (230 μmol/L), and EDTA-free protease inhibitors mix. The cell mixture was incubated for 30 minutes at 4° C. with vortexing, followed by centrifugation at 13000 rpm for 10 minutes at 4° C. To assess the eNOS-VE-PTP interaction, the following modifications were applied: 1) cells were incubated with the lysis buffer for one hour on an end-over-end rocker at 4° C. and gently vortexed until no cell clumps were observed; 2) lysates were not centrifuged after lysis. FLAG-tagged eNOS was immunoprecipitated using 30 μL of packed Anti-FLAG M2 Affinity Gel per mg protein lysate overnight. The recovered immunoprecipitates were washed three times with the lysis buffer, eluted by boiling samples for 10 minutes in SDS sample buffer, and then analyzed by SDS-PAGE and immunoblotting.
Protein samples were separated by SDS-PAGE and then transferred to […] nitrocellulose membranes. Membranes were incubated overnight with primary antibodies against phospho-Tyr81 eNOS, phospho-Ser1177 eNOS, phospho-Ser633 eNOS, eNOS, phospho-Ser473 Akt, Akt, ABL1, VE-PTP, GAPDH, β-actin, followed by species-specific secondary antibodies anti-IgG conjugated with HRP. Proteins were visualized by enhanced chemiluminescence.

[2] = arteries precontracted with phenylephrine, n=5 mice/group
[3] = 30 μmol/L 30 minutes, then Yoda1 1 μmol/L 30 min

CCc1nc([C@H](Cc2ccc(NS(=O)(=O)O)cc2)NC(=O)[C@H](Cc2ccccc2)NC(=O)OC)cs1 [Compound 2]
basal NO production (nitrite in supernatant) (human endothelial cells): enhanced basal NO production
phenylephrine-induced contractions and sodium nitroprusside-induced relaxations ([1]; 1, 3, or 10 μmol/L, 30 minutes): Neither phenylephrine-induced contractions nor sodium nitroprusside-induced relaxations were affected
acetylcholine-induced relaxations of endothelium-intact vessels ([1]; 1, 3, or 10 μmol/L, concentration-dependent): significantly enhanced
relaxation response in presence of eNOS inhibitor L-NAME ([1]; L-NAME 300 μmol/L): abolished
Emax of concentration-dependent relaxation [1, 2]: 73.4±2.9%
pEC50 of concentration-dependent relaxation [1, 2]: 5.14±0.05 log mol/L
time-dependent dephosphorylation of eNOS Tyr81 by recombinant VE-PTP (recombinant human VE-PTP): abolished
Yoda1-induced phosphorylation of Akt on Ser473 and eNOS on Ser1177 (eNOS; [3]): also increased
Yoda1-induced phosphorylation of eNOS on Ser633 (eNOS; [3]): not affected
Yoda1-induced phosphorylation of eNOS on Tyr81 (eNOS; [3]): markedly enhanced
eNOS phosphorylation on Tyr81 and Ser1177 (eNOS; 0.3-30 μmol/L, 30 minutes): led to phosphorylation of eNOS on Tyr81 and Ser1177
